What was measured:
[1] = relaxivity rates (Bruker NMR MiniSpec, 20 MHz, 40° C.); assay type: physicochemical
[2] = system: mouse; test: mouse i.v. LD50 (acute toxicity); assay type: in vivo; details: 0.5M solution, confidence limit of 14.3-18.4 mmol/kg
[3] = sterile water for injection (SWFI)

O=C([O-])CN(CCN(CC(=O)[O-])CC(=O)NCC1CCCO1)CCN(CC(=O)[O-])CC(=O)NCC1CCCO1.[Gd+3] (centres unmarked) [Example 2]
relaxivity rate T1 ([1]; 4% human serum albumin (HSA)): 4.8 mmol⁻¹ s⁻¹ | relaxivity rate T2 ([1]; 4% human serum albumin (HSA)): 4.8 mmol⁻¹ s⁻¹ | relaxivity rate T1 [1, 3]: 4.4 mmol⁻¹ s⁻¹ | relaxivity rate T2 [1, 3]: 5.6 mmol⁻¹ s⁻¹ | LD50 value [2]: 16.2 mmol/kg

— US5077037A, “Novel compositions for magnetic resonance imaging” (Mallinckrodt Medical, Inc., priority 1990, dated 1991)
